Data taken from US10570152B2, “Antibacterial therapeutics and prophylactics” (VYOME BIOSCIENCES PVT. LTD., priority 2015, dated 2020).
Converted amounts (≈) assume the structure as drawn.

How the values were obtained:
[1] = test system: P. acnes CCARM 9010 induced paw inflammation; assay: Anti-inflammatory action in vivo, rat paw edema model; parameters: species or system Sprague Dawley rats; conditions: topical, 24 h post initiation of treatment (32 h post induction)
Excerpt: Host inflammation is one of the crucial clinical feature of most of the indications associated with bacterial infections. The inventors used an exemplary compound of the invention (Compound 2) to test the anti-inflammatory effects in vivo using rat paw edema model. Inflammation was induced using one of the opportunistic pathogens Propionibacterium acnes prevalent in implant associated infections. Sprague Dawley rats were used for the study and infection was induced by P. acnes CCARM 9010. An inoculum of 1×10^9 CFU/ml of the heat killed bacteria was injected to the plantar side of the right hind paw (˜2×10^7 CFU/paw) except in sham control where saline was injected. Treatments were initiated 8 h post injection by applying the test formulation of Compound 2 (30 mg) twice daily to the plantar surface of the right hind paw and gently rubbing 50 times with the index finger. Comparators Acnedap (dapsone 5% gel) and adapalene gel (Adaferin®) were applied twice daily and once daily based on clinical prescription dosage. Paw sizes were measured in millimeters using Vernier calipers at the start of the infection, 8 h post infection, and 24 h post initiation of treatment (32 h post induction of inflammation). The change in paw size, due to inflammation, was evaluated as the difference between the paw size measured at each time point and the basal paw size measured immediately before edema induction.

[2] = test system: A. baumannii ATCC 1906; assay: MIC by micro broth dilution; type: cell-based; conditions: Acinetobacter baumannii, ATCC1906, read-out: Minimum inhibitory concentration (MIC)
Outline: (§1)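 Bacteria were grown on BHI agar at 37° C. for 24 h, adjusted to 0.5 McFarland and diluted 100-fold. This suspension was added to serially doubled compound in BHI broth, incubated 24 h at 37° C., and MIC was read with Alamar blue.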

[3] = test system: A. baumannii CCARM 12001; assay: MIC by micro broth dilution; type: cell-based; conditions: Acinetobacter baumannii, CCARM12001, read-out: Minimum inhibitory concentration (MIC)
Outline: as §1

[4] = test system: A. baumannii CCARM 12020; assay: MIC by micro broth dilution; type: cell-based; conditions: Acinetobacter baumannii, CCARM12020, read-out: Minimum inhibitory concentration (MIC)
Outline: as §1

[5] = test system: E. aerogenes M2-1; assay: MIC by micro broth dilution; type: cell-based; conditions: Klebsiella aerogenes, M21, read-out: Minimum inhibitory concentration (MIC)
Outline: as §1

[6] = test system: E. aerogenes NCIM 5139; assay: MIC by micro broth dilution; type: cell-based; conditions: Klebsiella aerogenes, NCIM5139, read-out: Minimum inhibitory concentration (MIC)
Outline: as §1

[7] = test system: E. coli BAA 196; assay: MIC by micro broth dilution; type: cell-based; conditions: Escherichia coli, BAA196, read-out: Minimum inhibitory concentration (MIC)
Outline: as §1

[8] = test system: E. coli MTCC 1687; assay: MIC by micro broth dilution; type: cell-based; conditions: Escherichia coli, MTCC1687, read-out: Minimum inhibitory concentration (MIC)
Outline: as §1

[9] = test system: E. faecium CCARM 5207; assay: MIC by micro broth dilution; type: cell-based; conditions: Enterococcus faecium, CCARM5207, read-out: Minimum inhibitory concentration (MIC)
Outline: as §1

[10] = test system: E. faecium NCIM 5421; assay: MIC by micro broth dilution; type: cell-based; conditions: Enterococcus faecium, NCIM5421, read-out: Minimum inhibitory concentration (MIC)
Outline: as §1

[11] = test system: E. fecalis CCARM 5168; assay: MIC by micro broth dilution; type: cell-based; conditions: read-out: Minimum inhibitory concentration (MIC)
Outline: as §1

[12] = test system: K. pneumonia ATCC 13883; assay: MIC by micro broth dilution; type: cell-based; conditions: for activity in words: Klebsiella pneumonia (susceptible); for MIC: Klebsiella pneumoniae, ATCC13883, K. pneumonia ATCC 13883, read-out: Minimum inhibitory concentration (MIC)
Outline: as §1

[13] = test system: P. aeruginosa ATCC 27853; assay: MIC by micro broth dilution; type: cell-based; conditions: Pseudomonas aeruginosa, ATCC27853, read-out: Minimum inhibitory concentration (MIC)
Outline: as §1

[14] = test system: P. aeruginosa CCARM 2161; assay: MIC by micro broth dilution; type: cell-based; conditions: Pseudomonas aeruginosa, CCARM2161, read-out: Minimum inhibitory concentration (MIC)
Outline: as §1

[15] = test system: P. aeruginosa CCARM 2204; assay: MIC by micro broth dilution; type: cell-based; conditions: Pseudomonas aeruginosa, CCARM2204, read-out: Minimum inhibitory concentration (MIC)
Outline: as §1

[16] = test system: S. aureus ATCC 43300; assay: MIC by micro broth dilution; type: cell-based; conditions: Staphylococcus aureus, ATCC43300; S. aureus ATCC 43300; read-out: Minimum inhibitory concentration (MIC)
Outline: as §1

[17] = test system: S. aureus CCARM 3505; assay: MIC by micro broth dilution; type: cell-based; conditions: Staphylococcus aureus, CCARM3505, read-out: Minimum inhibitory concentration (MIC)
Outline: as §1

[18] = test system: S. aureus MTCC 6908; assay: MIC by micro broth dilution; type: cell-based; conditions: Staphylococcus aureus, MTCC6908, read-out: Minimum inhibitory concentration (MIC)
Outline: as §1

[19] = test system: S. epidermidis ATCC 35984; assay: MIC by micro broth dilution; type: cell-based; conditions: Staphylococcus epidermidis, ATCC35984, read-out: Minimum inhibitory concentration (MIC)
Outline: as §1

[20] = test system: S. epidermidis S12-1; assay: MIC by micro broth dilution; type: cell-based; conditions: Staphylococcus epidermidis, S121, read-out: Minimum inhibitory concentration (MIC)
Outline: as §1

[21] = test system: S. epidermidis S5-2; assay: Sequential ZIB (zone of inhibition) assay for PMMA beads; type: cell-based, Staphylococcus epidermidis; conditions: SmartSet HV impregnated beads
Experimental: S. epidermidis S5-2 cells were grown in Brain Heart Infusion Agar (BHIA) at 37° C. for 24 h. 100 μl of 0.5 McFarland equal bacterial suspension was spread on BHA plates. Drug loaded beads were placed above these plates. Plates were incubated at 37° C. for 24 h. Next day, zone of inhibition (ZOI) the beads were measured following which the beads were placed on fresh BHA plates with bacterial suspension spread and this experiment was continued up to seven days. The drug release pattern was determined by compiling and analyzing the ZOI data of beads on each ZOI cycle up to seven days.

[22] = Drug release assay of compound impregnated Smart set HV; type: physicochemical; conditions: Smart set HV loaded; PBS buffer (pH 6.8):acetonitrile (9:1), 32° C., 7 days
Experimental: The drug release study with compound 2 and compound 10 were conducted in sample vial containing 1.5 ml of dissolution media i.e., PBS buffer (pH 6.8):acetonitrile (9:1). The sample was kept in incubator rotator at 32° C. at 40 rpm. The release medium was withdrawn at specified interval of time (2 hr, 4 hr, 6 hr, day 1, day 2, day 3, day 4, day 5, day 6, day 7 and replaced by fresh 1.5 ml dissolution medium each time. All the samples were kept at −20° C. till the analysis is done. The measurement of drug release was done by HPLC.

[23] = test system: Gram negative pathogens; assay: MIC interpretations, Gram negative pathogens; type: cell-based
Experimental: MIC of DART molecules were determined by micro broth dilution as per CLSI guidelines. Bacterial strains were cultured in Brain Heart Infusion Agar (BHIA) at 37° C. for 24 h. For MIC determination, BHI broth (100 μl) was added to each of the wells of a 96 well plate. 100 μl of broth containing drug was added to the first well (1A to 1H) and thereafter serial (double) dilutions were carried out for up to 10 wells (column 1 to column 10 of the 96 well plate). Bacterial inoculum was prepared by adjusting the bacterial culture turbidity to 0.5 McFarland standard (approximately 1.5×10^8 cells/ml) and further diluted (100 times with sterile BHI broth). Diluted bacterial suspension (100 μl) was added to each well except sterility control wells (column 12 of 96 well plate). The plates were incubated at 37° C. for 24 h. The MIC of the test compound was measured after addition of Alamar blue dye.

MIC [2] [µg/mL] | MIC [3] [µg/mL] | MIC [4] [µg/mL] | MIC [5] [µg/mL] | MIC [6] [µg/mL] | MIC [7] [µg/mL] | MIC [8] [µg/mL] | MIC [9] [µg/mL] | MIC [10] [µg/mL] | MIC [11] [µg/mL] | MIC [12] [µg/mL] | MIC [13] [µg/mL] | MIC [14] [µg/mL] | MIC [15] [µg/mL] | MIC [16] [µg/mL] | MIC [17] [µg/mL] | MIC [18] [µg/mL] | MIC [19] [µg/mL] | MIC [20] [µg/mL] | SMILES | activity in words [12] | other results
– | – | – | – | – | – | – | – | – | – | – | – | – | – | – | – | – | – | – | COc1ccc(-c2ccc3cc(C(=O)O)ccc3c2)cc1C12CC3CC(CC(C3)C1)C2 [Adapalene, adapalene, reference compound] | – | Inhibition of inflammation (%) at 24 h post treatment [1]: 31.55%
1 (≈ 2.11 µM) | > 16 | 8 (≈ 16.9 µM) | 0.25 (≈ 0.527 µM) | 0.125 (≈ 0.263 µM) | 4 (≈ 8.43 µM) | 0.13 (≈ 0.274 µM) | > 16 | 0.125 (≈ 0.263 µM) | 1 (≈ 2.11 µM) | 0.25 (≈ 0.527 µM) | 1 (≈ 2.11 µM) | > 16 | 4 (≈ 8.43 µM) | < 0.02 | 1 (≈ 2.11 µM) | 0.04 (≈ 0.0843 µM) | < 0.03 | 2.25 (≈ 4.74 µM) | CC1Sc2c(C(=O)O)c(=O)c3cc(F)c(N4CCN(Cc5ccc([N+](=O)[O-])o5)CC4)cc3n21 (stereo not drawn) [Compound 10, 6-Fluoro-1-methyl-7-(4-((5-nitrofuran-2-yl)methyl)piperazin-1-yl)-4-oxo-1H,4H-[1,3]thiazeto[3,2-a]-quinoline-3-carboxylic acid] | active | Sequential ZOI ([21]; Day-1): 2.2 cm; Sequential ZOI ([21]; Day-2): 2 cm; Sequential ZOI ([21]; Day-3): 1.8 cm; Sequential ZOI ([21]; Day-4): 1.7 cm; Sequential ZOI ([21]; Day-5): 1.7 cm; Sequential ZOI ([21]; Day-6): 1.6 cm; Sequential ZOI ([21]; Day-7): 1.8 cm; drug release from bone cement in words [22]: sustained release of active over a period of 7 days
1 (≈ 2.05 µM) | > 16 | > 16 | 0.25 (≈ 0.512 µM) | 0.125 (≈ 0.256 µM) | 1 (≈ 2.05 µM) | 0.25 (≈ 0.512 µM) | 8 (≈ 16.4 µM) | 0.625 (≈ 1.28 µM) | 4 (≈ 8.19 µM) | 0.5 (≈ 1.02 µM) | 1 (≈ 2.05 µM) | > 16 | > 16 | 0.03 (≈ 0.0614 µM) | 1 (≈ 2.05 µM) | 0.125 (≈ 0.256 µM) | < 0.03 | 0.13 (≈ 0.266 µM) | CC1Sc2c(C(=O)O)c(=O)c3cc(F)c(N4CCN(C(=O)c5ccc([N+](=O)[O-])o5)CC4)cc3n21 (stereo not drawn) [Compound 11, 6-Fluoro-1-methyl-7-(4-(5-nitrofuran-2-carbonyl)piperazin-1-yl)-4-oxo-1H,4H-[1,3]thiazeto[3,2-a]-quinoline-3-carboxylic acid] | active | –
– | – | – | – | – | – | – | – | – | – | – | – | – | – | – | – | – | – | – | Nc1ccc(S(=O)(=O)c2ccc(N)cc2)cc1 [Dapsone, dapsone, reference compound] | – | Inhibition of inflammation (%) at 24 h post treatment [1]: 43.82%

SMILES | MIC [2] [µg/mL] | MIC [3] [µg/mL] | MIC [4] [µg/mL] | MIC [5] [µg/mL] | MIC [6] [µg/mL] | MIC [7] [µg/mL] | MIC [8] [µg/mL] | MIC [9] [µg/mL] | MIC [10] [µg/mL] | MIC [11] [µg/mL] | MIC [12] [µg/mL] | MIC [13] [µg/mL] | MIC [14] [µg/mL] | MIC [15] [µg/mL] | MIC [16] [µg/mL] | MIC [17] [µg/mL] | MIC [18] [µg/mL] | MIC [19] [µg/mL] | MIC [20] [µg/mL] | activity in words [12] | other results
CC1SC2C(C(=O)O)C(=O)c3cc(F)c(N4CCN(CC(=O)c5ccccn5)CC4)cc3N12 (stereo not drawn) [Compound 33, 6-Fluoro-1-methyl-4-oxo-7-(4-(2-oxo-2-(pyridin-2-yl)ethyl)piperazin-1-yl)-2a,3-dihydro-1H,4H-[1,3]thiazeto[3,2-a]quinoline-3-carboxylic acid] | 0.06 (≈ 0.128 µM) | 16 (≈ 34 µM) | 4 (≈ 8.5 µM) | 0.06 (≈ 0.128 µM) | 0.0312 (≈ 0.0663 µM) | 2 (≈ 4.25 µM) | < 0.03 | 8 (≈ 17 µM) | 0.125 (≈ 0.266 µM) | 0.5 (≈ 1.06 µM) | 0.06 (≈ 0.128 µM) | 0.5 (≈ 1.06 µM) | 16 (≈ 34 µM) | 8 (≈ 17 µM) | 0.25 (≈ 0.531 µM) | > 16 | 0.25 (≈ 0.531 µM) | 0.13 (≈ 0.276 µM) | 8 (≈ 17 µM) | active | MIC ([23]; Escherichia coli, resistant E. coli (MDR) and E. aerogens): ≤ 1 µg/mL; bio-activity (MIC) range ([23]; different resistant strains of P. aeruginosa, A. baumanni): 4 to 16 µg/mL
